Experimental data reported in patent publication US10328056B2, “Priming of pancreatic tumor cells and cancer stem cells to TRAIL-induced apoptosis” (Alliance of Cardiovascular Researchers, priority 2014, dated 2019).

Columns and labels:
[1] = system: adipose tissue-derived stem cells (ASCs); test: Differentiation assay of ASCs; format: cell-based, human
Method: Adipose tissue-derived stem cells were seeded in the following concentrations: adipogenic differentiation, 1×10^4 cells/cm^2; chondrogenic differentiation, 1.6×10^7 cells/cm2; and osteogenic differentiation, 5×10^3 cells/cm^2. After a 2-hour incubation with 20% FBS-containing medium, cells were washed, and the respective differentiation media were added (Invitrogen StemPro differentiation kits). Differentiation media were changed twice a week. After 14 to 21 days, cells were fixed with 4% formaldehyde for 30 minutes and stained with Oil Red O for lipid vesicles (adipogenic differentiation), Alcian Blue for proteoglycans (chondrogenic differentiation), and Alizarin Red S for calcium deposits (osteogenic differentiation) as reported previously. Bai X, Alt E. “Myocardial regeneration potential of adipose tissue-derived stem cells” Biochemical and Biophysical Research Communications. 401 (2010) 321-6.

MiaPaCa2 tumors = test: Orthotopic MiaPaCa2 tumor model; format: in vivo, mice; conditions: for #tumors at 6 wks: JNKi 1 mg/kg oral 5x/week, TRAIL 1 mg/kg i.p. 2x/week, gemcitabine 80 mg/kg 2x/week; for % tumor presence at 6 wks / Kidney mets / Liver mets / Peritoneal mets / Spleen mets: same regimens; for Kidney mets / Liver mets / Peritoneal mets / Spleen mets: at 6 wks
Method: Age-matched male swiss nu/nu mice (6-8 weeks old) were injected orthotopically with pancreatic tumor cells. All procedures were performed in accordance with the guidelines of the Institutional Animal Care and Use Committee at The University of Texas MD Anderson Cancer Center (ACDF Protocol #12-12-12631). Animals were anesthetized with isoflurane anesthesia (1%-3% via inhalation), and an incision was made in the left abdominal flank. The spleen was located and extracted, and 1×10^6 pancreatic cells in 50 μL of PBS were injected into the underlying tail of the pancreas. The abdominal wall was closed with sterile absorbable sutures, and wound clips were applied to the skin. Animals were monitored daily and after two weeks of untreated tumor growth randomly assigned to different treatment groups: control (no treatment), JNKi (1 mg/kg) was administered by oral gavage five times per week; gemcitabine (80 mg/kg) or TRAIL (1 mg/kg) was injected intraperitoneally with a 27-G needle two times per week or JNKi and TRAIL together at the dosages indicated above. Weight, tumor growth, and health status were clinically followed for 4 weeks. At day 42, animals were euthanized, and blood and tissues were collected for postmortem analysis.

[2] = system: CSC-enriched pancreatic cancer spheres; test: Sphere forming assay; format: cell-based; conditions: high-dose treatment group (control 40%)
Method: Sphere-forming medium consisted of MEMα supplemented with L-glutamine, putrescine, insulin (all from Sigma-Aldrich), […] (20 ng/mL), basic fibroblast growth factor (10 ng/mL), and B-27 supplement (Gibco). For first generation, attached cells were trypsinized, washed twice with PBS, and seeded in sphere-forming medium as single cell suspensions with clonal density (5,000-10,000 cells/mL) on ultra-low-attachment plates (Corning). After 7 to 10 days, spheres were harvested by gravitation in a tube, trypsinized, washed twice with PBS, and reseeded as described above for the next higher generation. To quantify sphere-forming ability, cells were prepared as described in the preceding paragraph and seeded in 96-well ultra-low-attachment plates at 500 to 1000 cells per well. Medium was supplemented with 1% methylcellulose to prevent cell-cell attachments. Medium was added or renewed every 3 days, and spheres were quantified at day 10 to 12.

MTT cell viability assay = format: cell-based; conditions: human, low-dose 0.5 μM or 1.0 μM
Method: (§1) Cells were seeded in a 96-well plate at a density of 4000 to 5000 cells per well (70%-80% confluence) in triplicate. Non-adherent cells were washed with PBS, and different substrate dilutions were added. After 24 hours, 3-(4,5-dimethylthiazol-2-yl)-2,5-diphenyltetrazolium bromide (MTT) assay (Roche, Mannheim, Germany) was performed according to the manufacturer's instructions. Results were measured at 570 nm and background at 650 nm on a microplate reader (Molecular Devices).

[3] = system: adipose tissue-derived stem cells (ASCs); test: MTT proliferation assay of adipose tissue-derived stem cells; format: cell-based, human; conditions: 10.0 μM or 20.0 μM
Method: as §1
For measurement of cell proliferation, cells were seeded into 24-well plates. After 24 hours, cells were washed with PBS, and medium with different dilutions of JNKi was added. Viable cells were then counted daily with a standard trypan blue stain protocol.

DcR1 = test: qRT-PCR of TRAIL decoy receptor; format: cell-based; conditions: vs control samples
Method: (§2) For total RNA extraction, cells were homogenized with TRIzol (Invitrogen). Phase separation was performed by the addition of chloroform and subsequent centrifugation steps. Aqueous phase of samples was collected, and RNA was precipitated by isopropyl alcohol. After washing, RNA was redissolved in DEPC-treated water, and RNA quality and quantity were measured with a Nanodrop ND-1000 Spectrophotometer (Thermo Scientific). For cDNA synthesis, the iScript Reverse Transcription Supermix (Bio-Rad) was used according to the manufacturer's protocol, and the reaction mix was incubated in a thermal cycler (Bio-Rad MyIQ Single-Color RT-PCR Detection System iCycler) with the following protocol: priming (5 minutes at 25° C.), reverse transcription (30 minutes at 42° C.), and reverse transcription inactivation (5 minutes at 85° C.). qRT-PCR was performed using iQ SYBR Green Supermix (Bio-Rad) according to the following protocol: initial denaturation and enzyme activation (1 cycle at 95° C. for 3 minutes), denaturing (40 cycles at 95° C. for 15 seconds) with annealing and extension (40 cycles at 55° C. for 30 seconds), and melting curve (1 cycle at 55° C.-95° C. in […] for 30 seconds). The Ct (cycle threshold) value was measured in absolute quantification (of cycles of amplification) and compared to β-actin, which served as a housekeeping gene.

L3.6pl spheres = test: Acridine orange/ethidium bromide staining; format: cell-based; conditions: 50 ng/mL, 24 hours
From the text: (§3) According to a protocol adapted from Todaro et al. (supra), attached cells or spheres were washed with PBS, stained with acridine orange/ethidium bromide, and visualized immediately with fluorescent microscopy.

L3.6pl parental cells = test: Acridine orange/ethidium bromide staining; format: cell-based; conditions: 50 ng/mL, 24 hours
From the text: as §3

DR4 and DR5 = test: qRT-PCR of TRAIL death receptors; format: cell-based; conditions: vs control samples
Method: as §2

[4] = system: CSC-enriched pancreatic cancer spheres; test: MTT viability assay, spheres versus parental cells; format: cell-based; conditions: 25 ng/mL and 50 ng/mL
Method: as §1

[5] = system: parental pancreatic cancer cells; test: MTT cell viability assay, single agents; format: cell-based; conditions: JNKi 0.5 μM alone; rhTRAIL 10 ng/mL alone
Method: as §1

IL-8 secretion = test: Human CXCL8/IL-8 ELISA of culture supernatant; format: cell-based
Method: Cell culture supernatant was obtained after 24-hour treatments in triplicate. A human CXCL8/IL-8 Quantikine ELISA kit (R&D Systems) was used to measure human IL-8 according to the manufacturer's protocol. An IL-8 standard curve was performed to determine concentrations (in pg of cytokine per μL).

p-JNK = test: PathScan p-SAPK/JNK sandwich ELISA; format: cell-based; conditions: L3.6plTR cells vs untreated control
Method: Protein lysates were obtained from adherent cells or spheres after 1-hour of incubation with JNKi and/or TRAIL. Protein quantification was performed, and PathScan Sandwich ELISA Antibody Pair (Cell Signaling Technologies) was performed according to the manufacturer's instructions.

[6] = system: TRAIL-resistant L3.6pl cells (L3.6plTR); test: Cell viability / cell death in TRAIL-resistant cells; format: cell-based
Method: as §1

L3.6pl cells = test: MTT cell viability assay; format: cell-based; conditions: compared to TRAIL alone
Method: as §1

IL-8, CXCR1, DcR1, c-Jun = test: qRT-PCR of IL-8 axis genes; format: cell-based; conditions: IL-8 treatment
Method: as §2

Compound | differentiation into osteoblasts, chondrocytes, adipocytes [1] | #tumors at 6 wks (MiaPaCa2 tumors) | % tumor presence at 6 wks (MiaPaCa2 tumors) [%] | Kidney mets (MiaPaCa2 tumors) | Liver mets (MiaPaCa2 tumors) | Peritoneal mets (MiaPaCa2 tumors) | Spleen mets (MiaPaCa2 tumors) | also measured
Oc1c2ccccc2c2c3c(cccc13)N=N2 [JNKi, SP600125] | functionally unimpaired | 4/4 | 100 | 0 | 1 | 0 | 1 | spheres bigger than 150 μm in diameter [2]: 0%; viability at 24 h (MTT cell viability assay; L3.6pl cells, 24 hours): 80%; viability at 24 h (MTT cell viability assay; MiaPaCa2 cells): 80%; cell proliferative capacity, lower compared to untreated ASCs [3]: 20%
Nc1ccn([C@@H]2O[C@H](CO)[C@@H](O)C2(F)F)c(=O)n1 [GEM, Gemcitabine] | – | 5/5 | 100 | 0 | 1 | 1 | 3 | –
TRAIL: recombinant human TNF-related apoptosis-inducing ligand from R&D Systems | functionally unimpaired | 10/10 | 100 | 0 | 2 | 1 | 0 | expression of DcR1 (DcR1): increased the expression of the decoy receptor DcR1; viability of spheres (L3.6pl spheres): almost entirely viable; apoptosis (L3.6pl parental cells): robust apoptosis; expression of DR4 and DR5 (DR4 and DR5): reduced the presence of the apoptosis receptors DR4 and DR5; resistance of spheres to TRAIL-induced cell death vs parental cells [4]: significantly more resistant; cell viability [5]: only modest effects; TRAIL level at peak IL-8 secretion (IL-8 secretion; Panc1 cells, 24 hours): 50 ng/mL; IL-8 secretion (IL-8 secretion; TRAIL with or without JNKi): upregulates IL-8 secretion; IL-8 production (IL-8 secretion; increasing doses of TRAIL, 24 hours): increased dose-dependently; p-JNK levels (p-JNK): increased p-JNK levels; cell death ([6]; TRAIL doses up to 100 ng/mL): detectable cell death only in small numbers of cells
IL-8: interleukin-8 added to cells in combination with TRAIL | – | – | – | – | – | – | – | cell viability / apoptosis in combination with TRAIL (L3.6pl cells): neutralized the apoptosis-inducing power of TRAIL; DcR1 expression (IL-8, CXCR1, DcR1, c-Jun): upregulation of the decoy receptor DcR1; IL-8 and CXCR1 expression (IL-8, CXCR1, DcR1, c-Jun): autostimulated IL-8 and CXCR1 expression; cell viability / apoptosis in combination with TRAIL ([6]; compared to TRAIL alone): neutralized the apoptosis-inducing power of TRAIL
